Measured values reported in US12569170B2, “Paramagnetic sodium NMR macrocyclic-based biosensors, and associated methods” (Yale University, priority 2021, dated 2026).

Assays:
[1] = Bulk magnetic susceptibility (BMS) contribution to chemical shift in phantoms; assay type: physicochemical; conditions: phantoms parallel, perpendicular to B0 and spherical
Source text: Upon translation of the present in vitro results to in vivo situations, certain confounding factors must be addressed. In the interstitial space, there are additional cations such as calcium (Ca^2+), magnesium (Mg^2+) and K^+ which will also bind to anionic contrast agents like TmDOTP^5−. However, physiologically their concentrations are low compared to Na^+. […] Additionally, there is a contribution to the chemical shift from bulk magnetic susceptibility (BMS) changes brought about by TmDOTP^5− in addition to the hyperfine shifts induced by interactions with Na^+. Experiments were performed on different DOTP^8− salts in phantoms parallel and perpendicular to the main magnetic field B0, and also spherical phantoms in which there was no BMS contribution. Only a small portion (˜2%) of the total chemical shift for TmDOTP^5− was due to BMS arising due to anisotropy of the paramagnetic susceptibility, and the remainder was the hyperfine shift.

[2] = cited from earlier work
[3] = Comparison of ^23Na shiftability and broadening potential of DOTP agents; assay type: physicochemical
[4] = test system: rat brain bearing U251, RG2 or U87 tumors; assay: In vivo ^23Na-MRSI peak separation in tumor-bearing rat brain
Source text: Before TmDOTP^5− delivery, there was a single ^23Na peak at 0 ppm corresponding to Na^+T, observed ubiquitously both inside and outside the tumor. Upon TmDOTP^5− delivery, compartmental ^23Na peak separation was achieved. Within the tumor, the compromised BBB permitted greater TmDOTP^5− extravasation and accumulation in the interstitial space, explicitly yielding three separate ^23Na peaks emerging from the original single ^23Na resonance. […] In the tumor, the most-shifted peak was Na^+b because the blood compartment had the largest TmDOTP^5−, which was corroborated by removing blood samples from the animal and observing the same chemical shift in vitro (FIG. 2D). In the tumor, the intermediate peak in the middle corresponded to the interstitial Na^+e resonance (FIG. 2B). The splitting was also evident outside of the tumor (i.e., in healthy tissue) where TmDOTP^5− extravasated to a much lesser extent compared to tumor tissue (FIG. 2C). The Na^+b peak was still most-shifted, whereas the Na^+i and Na^+e peaks were less discernible. When there was significant overlap between adjacent peaks, instead of peak integrals the peak amplitudes were used to discriminate signals. The shifted bulk Na^+e peak in healthy tissue confirmed that whatever degree of TmDOTP^5− extravasation occurred was sufficient to affect the interstitial ^23Na signals, albeit less pronounced than tumoral Na^+e. The unshifted Na^+i resonance was still at 0 ppm, but partially eclipsed by the bulk Na^+e peak. These same patterns inside/outside the tumor were observed throughout the brain.
The in vivo protocol was approved by the Institutional Animal Care & Use Committee of Yale University, and all procedures were performed in accordance with these enforced guidelines and regulations, and in compliance with the ARRIVE guidelines. Rats (athymic/nude and Fischer 344) were purchased through Yale University vendors. U251, U87 and RG2 GBM cell lines were purchased from American Type Culture Collections (Manassas, VA, USA). The U251, U87, and RG2 cells were cultured and grown in a 5% CO2 incubator at 37° C. in either low-glucose (U251 cells) or high-glucose (U87 and RG2 cells) Dulbecco's Modified Eagle's Medium (DMEM) (Thermo Fisher Scientific, Waltham, MA, USA) with 10% fetal bovine serum (FBS) and 1% penicillin-streptomycin. Cells for tumor inoculation were harvested upon reaching at least 80% confluence and were prepared in FBS-free DMEM. Athymic/nude rats were injected intracranially with 2-5×10^6 tumor cells either from the U251 (n=6) or the U87 (n=8) cell line (5-μL aliquot) while placed in a stereotactic holder on a heating pad. Fischer 344 rats were injected with 1.25×10^3 RG2 cells (n=8). During the procedure, animals were anesthetized via isoflurane (Isothesia) inhalation (3-4%), purchased from Covetrus (Portland, ME, USA). Dissection was performed to the cranium, and a hole was drilled into the skull to allow for stereotactic needle insertion. Injections were performed using a 10-μL Hamilton syringe with a 26G needle into the right striatum for majority of the experiments, 3 mm to the right of the bregma and 3 mm below the dura. The cells were injected steadily at 1 μL/min over 5 min and the needle was left in place for an additional 5 min post-injection. The syringe was then gradually removed to preclude any backflow of cells. The hole in the skull was sealed with bone wax, and the incision site was sutured after removal of the syringe. Animals were given bupivacaine (2 mg/kg at incision site) and carprofen (5 mg/kg, subcutaneously) during the tumor inoculation to relieve pain. Carprofen was subsequently given once per day for two days post-inoculation.
Rats were weighed daily and kept on a standard diet of rat chow and water. Tumor growth was monitored every 3-4 days using ^1H-MRI under isoflurane anesthesia. When the tumor had reached a minimum mean diameter of 3 mm at 20-24 days post-injection, each animal was imaged using ^1H-MRI and ^23Na-MRSI. […]

[5] = intravenous ~1 μmol/g, all tumors
[6] = rats bearing RG2 and U87 tumors, tumor voxels

Q: For `O=P([O-])([O-])CN1CCN(CP(=O)([O-])[O-])CCN(CP(=O)([O-])[O-])CCN(CP(=O)([O-])[O-])CC1.[Na+].[Na+].[Na+].[Na+].[Na+].[Tm+3]` [TmDOTP^5−, sodium thulium (III) 1,4,7,10-tetraazacyclododecane-1,4,7,10-tetrakis(methylenephosphonate)], which “portion of the total chemical shift due to BMS” value [1] is on record?
A: The value was about 2%.

Q: And the “TmDOTP^5− in the cortex and subcortex” value ([2]; infusion protocol with probenecid, without renal ligation)?
A: Its value is about 0.1 μmol TmDOTP^5−/g BW.

Q: And the “in vivo concentrations in blood and interstitial spaces” value ([2]; rat, in vivo)?
A: The value was 1 to 2 mM.

Q: What about the “broadening potential (sensitivity of linewidth to agent concentration), words” value [3] of the same molecule?
A: Its value is “high broadening potentials”.

Q: What about the “shiftability (sensitivity of ^23Na chemical shift to agent concentration), words” value [3] of the same molecule?
A: The value was “high shiftability”.

Q: And the “observed ^23Na linewidths in vivo” value ([4]; after TmDOTP^5−)?
A: Its value is about 0.4 ppm.

Q: What about the “^23Na blood peak shift, in vitro analysis of blood samples” value ([4]; blood samples from the U251 tumor-bearing rat) of the same molecule?
A: Its value is “around 2 ppm”.

Q: What about the “TmDOTP^5− concentration in the tumor vasculature” value ([4]; from range of shifts observed and shiftability 2.77 ppm/mM) of the same molecule?
A: The value was “no more than 0.7 mM”.

Q: And the “separation of blood and interstitial ^23Na peaks” value ([4]; intravenous ~1 μmol/g)?
A: Its value is about 1.5 ppm.

Q: And the “^23Na shift in blood” value [4, 5]?
A: Its value is about 2 ppm.

Q: And the “^23Na shifts in tumor tissue” value [4, 5]?
A: Its value is 0.5-1 ppm.

Q: What about the “^23Na shift of blood sodium (Na^+b) peak” value ([4]; rat bearing U251 tumor, after TmDOTP^5− delivery) of the same molecule?
A: The value was “around 2 ppm”.

Q: And the “^23Na shift of intracellular sodium (Na^+i) peak” value ([4]; rat bearing U251 tumor, ~1 μmol/g BW)?
A: Its value is 0 ppm.

Q: What about the “Na^+e shift in the tumor” value ([4]; rats bearing RG2 and U87 tumors) of the same molecule?
A: Its value is 0.5-1 ppm.

Q: What about the “Na^+b shift” value [4, 6] of the same molecule?
A: Its value is “around 2 ppm”.

Q: What about the “Na^+i shift” value [4, 6] of the same molecule?
A: The value was 0 ppm.
